Laboratory results from patent publication US7985745B2, “Method for pain treatment” (Abbott Laboratories, priority 2006, dated 2011).

Test system: osteoarthritis pain
Assay: MIA-induced knee joint osteoarthritis model, hind limb grip force
Format: in vivo, rat
Settings: grip force 20 days after MIA, % return to normalcy vs naïve group
Procedure: Unilateral knee joint osteoarthritis was induced in rats by a single intra-articular (i.a.) injection of sodium monoiodoacetate (MIA) (Sigma-Aldrich, St. Louis, Mo.) (3 mg in 50 ul sterile isotonic saline) into the right knee joint cavity under light (1-3%) isoflurane anesthesia.
Pain behavior was assessed by measurement of hind limb grip force (GF) in adult osteoarthritic rats. Following the unilateral injection of MIA (male Sprague Dawley, 325-350 g, tested at 20 days following MIA injection), a behavioral measure of activity-induced pain was carried out. Measurements of the peak hind limb grip force were conducted by recording the maximum compressive force (CFmax), in grams of force, exerted on a hind limb strain gauge setup, in a commercially available grip force measurement system (Columbus Instruments, Columbus, Ohio).
During testing, each rat was gently restrained by grasping it around its rib cage and then allowed to grasp the wire mesh frame attached to the strain gauge. The experimenter then moved the animal in a rostral-to-caudal direction until the grip was broken. Each rat was sequentially tested twice at approximately 2-3 min interval to obtain a raw mean grip force (CFmax). This raw mean grip force data was in turn converted to a maximum hindlimb cumulative compressive force (CFmax), as the grams of force/kg of body weight, for each animal.
For evaluating the compound effects, the hind limb grip force was conducted 20 days following the intra-articular injection of MIA. A group of age-matched naïve (not injected with MIA) animals was added as a comparator to the drug-dosed groups. The vehicle control response for each group of MIA-treated animals was defined as the 0% response (0% effect), whereas the naïve control group was defined as the normal response and as 100% effect. The % effects for each dose group was expressed as % return of response to normalcy, compared to the naïve group. That is, the % effect=(Treatment CFmax−Vehicle CFmax)/[…]]×100). All experiments evaluating drug effects in this model were conducted in a randomized blinded fashion.

## CN1CCN(C(=O)c2cc3cc(Cl)ccc3[nH]2)CC1 [Example 3, reference compound]
100 micromole/kg i.p.
  % Effect: 21%
250 micromole/kg i.p.
  % Effect: 47%
